Measured values from the NIST ThermoML archive (doi:10.1021/acs.jced.5b00367).

Test: wn = mass fraction of the nth substance listed
Details: 101 kPa, Liquid, Alternating current cell with electrodes, w2 = 0.01

CCCCCCCCCCCCCCCC[N+](C)(C)C.[Br-] [N,N,N-trimethyl-1-hexadecanaminium bromide] + O
Details | electrical conductivity [S/m]
278.35 K | 0.0058
278.45 K | 0.00619
278.65 K | 0.00607
278.75 K | 0.00612
278.85 K | 0.0062
278.95 K | 0.00609
279.05 K | 0.00617
279.15 K | 0.00614
279.25 K | 0.0062
279.35 K | 0.00616
279.45 K | 0.00619
279.55 K | 0.00628
279.65 K | 0.00609
279.85 K | 0.0061
279.95 K | 0.00631
280.05 K | 0.00615
280.15 K | 0.00638
280.25 K | 0.00613
280.35 K | 0.00642
280.45 K | 0.00634
280.55 K | 0.00613
280.65 K | 0.00616
280.75 K | 0.00638
280.95 K | 0.00614
281.05 K | 0.00624
281.25 K | 0.00621
281.35 K | 0.00655
281.45 K | 0.00644
281.55 K | 0.00622
281.75 K | 0.00649
281.85 K | 0.00648
282.05 K | 0.00651
282.45 K | 0.00667
282.55 K | 0.00678
282.65 K | 0.00648
282.75 K | 0.00655
282.95 K | 0.00662
283.05 K | 0.00638
283.15 K | 0.00641
283.25 K | 0.0067
283.35 K | 0.00677
283.45 K | 0.00666
283.55 K | 0.0068
283.75 K | 0.00674
283.85 K | 0.0068
283.95 K | 0.00686
284.05 K | 0.00653
284.15 K | 0.00678
284.25 K | 0.00646
284.45 K | 0.00672
284.55 K | 0.007
284.65 K | 0.00699
284.75 K | 0.00651
284.85 K | 0.00686
285.05 K | 0.00717
285.15 K | 0.00708
285.25 K | 0.00696
285.35 K | 0.00725
285.45 K | 0.00739
285.55 K | 0.00715
285.65 K | 0.00719
285.85 K | 0.00716
285.95 K | 0.00733
286.05 K | 0.00702
286.15 K | 0.00705
286.25 K | 0.007
286.35 K | 0.00737
286.45 K | 0.00737
286.55 K | 0.00715
286.65 K | 0.00719
286.75 K | 0.00733
286.85 K | 0.0074
286.95 K | 0.00708
287.05 K | 0.00755
287.15 K | 0.00733
287.25 K | 0.00744
287.35 K | 0.00761
287.45 K | 0.00728
287.55 K | 0.00751
287.65 K | 0.00752
287.75 K | 0.0073
287.85 K | 0.0076
287.95 K | 0.00774
288.05 K | 0.0076
288.15 K | 0.00778
288.25 K | 0.00766
288.35 K | 0.00772
288.45 K | 0.00805
288.55 K | 0.00791
288.65 K | 0.00778
288.75 K | 0.00779
288.85 K | 0.0077
288.95 K | 0.00795
289.05 K | 0.00784
289.15 K | 0.00787
289.25 K | 0.00779
289.35 K | 0.00805
289.45 K | 0.00794
289.55 K | 0.00793
289.65 K | 0.00803
289.75 K | 0.00826
289.85 K | 0.00819
289.95 K | 0.00835
290.05 K | 0.0079
290.15 K | 0.00861
290.25 K | 0.00828
290.35 K | 0.00849
290.45 K | 0.00815
290.55 K | 0.00824
290.65 K | 0.00834
290.75 K | 0.00836
290.85 K | 0.00818
290.95 K | 0.00836
291.05 K | 0.00861
291.15 K | 0.00846
291.25 K | 0.0088
291.35 K | 0.00865
291.45 K | 0.00866
291.55 K | 0.00853
291.65 K | 0.00868
291.75 K | 0.00867
291.85 K | 0.00897
291.95 K | 0.00872
292.05 K | 0.00879
292.15 K | 0.00913
292.25 K | 0.00908
292.35 K | 0.00902
292.45 K | 0.00905
292.55 K | 0.00904
292.65 K | 0.00928
292.75 K | 0.00942
292.85 K | 0.00967
292.95 K | 0.00959
293.05 K | 0.00954
293.15 K | 0.00976
293.25 K | 0.01
293.35 K | 0.0101
293.45 K | 0.0102
293.55 K | 0.0103
293.65 K | 0.0105
293.75 K | 0.0102
294.15 K | 0.0106
294.25 K | 0.0109
294.35 K | 0.0107
294.45 K | 0.011
294.55 K | 0.0111
294.65 K | 0.0109
294.75 K | 0.011
294.85 K | 0.0114
294.95 K | 0.0113
295.05 K | 0.0114
295.15 K | 0.0117
295.25 K | 0.0117
295.45 K | 0.0122
295.65 K | 0.0126
295.75 K | 0.0124
295.85 K | 0.0128
296.05 K | 0.013
296.15 K | 0.0139
296.35 K | 0.0139
296.45 K | 0.0145
296.55 K | 0.0148
296.75 K | 0.0157
296.95 K | 0.0167
297.05 K | 0.0178
297.15 K | 0.02
297.35 K | 0.0201
297.45 K | 0.0217
297.55 K | 0.0232
297.65 K | 0.0257
297.95 K | 0.0314
298.05 K | 0.0353
298.25 K | 0.0406
298.35 K | 0.0457
298.45 K | 0.0514
298.55 K | 0.0565
298.75 K | 0.0605
298.85 K | 0.0628
299.05 K | 0.0642
299.15 K | 0.0647
299.25 K | 0.0648
299.55 K | 0.0651
299.75 K | 0.0653
299.95 K | 0.0654
300.25 K | 0.0657
300.85 K | 0.066
301.25 K | 0.0662
301.45 K | 0.0663
302.05 K | 0.0667
302.25 K | 0.0668
302.55 K | 0.067
302.65 K | 0.0671
302.85 K | 0.0672
302.95 K | 0.0666
303.05 K | 0.0673
303.15 K | 0.0675
303.35 K | 0.0676
303.65 K | 0.0678
303.85 K | 0.0679
304.05 K | 0.068
304.25 K | 0.0682
304.45 K | 0.0683
304.55 K | 0.0684
304.75 K | 0.0685
304.95 K | 0.0687
305.15 K | 0.0688
305.45 K | 0.0689
305.65 K | 0.0692
306.25 K | 0.0695
306.45 K | 0.0696
306.85 K | 0.0699
307.05 K | 0.07
307.35 K | 0.0702
307.45 K | 0.0703
307.75 K | 0.0705
307.95 K | 0.0707
308.65 K | 0.0712
308.85 K | 0.0714
309.05 K | 0.0715
309.35 K | 0.0712
309.55 K | 0.0718
309.75 K | 0.0719
309.85 K | 0.0721
310.05 K | 0.0722
310.25 K | 0.0723
310.45 K | 0.0724
310.65 K | 0.0727
310.85 K | 0.0728
311.25 K | 0.073
311.55 K | 0.0732
311.75 K | 0.0735
312.05 K | 0.0737
312.55 K | 0.074
312.95 K | 0.0744
313.35 K | 0.0745
313.55 K | 0.0747
313.75 K | 0.0748
313.95 K | 0.075
314.15 K | 0.0752
314.35 K | 0.0753
314.55 K | 0.0755
314.75 K | 0.0756
314.95 K | 0.0759
315.45 K | 0.0761
315.55 K | 0.0762
315.75 K | 0.0764
315.95 K | 0.0765
316.15 K | 0.0767
316.35 K | 0.0769
316.65 K | 0.0771
317.05 K | 0.0775
317.15 K | 0.0776
318.05 K | 0.0778
318.25 K | 0.0783
318.45 K | 0.0786
318.95 K | 0.079
319.25 K | 0.0792
319.75 K | 0.0798
320.25 K | 0.08
320.35 K | 0.0802
320.65 K | 0.0816
321.85 K | 0.0817
322.05 K | 0.0819
322.25 K | 0.082
322.35 K | 0.0823
322.75 K | 0.0824
322.85 K | 0.0826
323.15 K | 0.083
323.35 K | 0.0832
323.45 K | 0.0834
323.65 K | 0.0837
323.85 K | 0.0839
324.05 K | 0.0841
324.35 K | 0.0842
324.45 K | 0.0843
324.65 K | 0.0846
324.75 K | 0.0848
324.85 K | 0.0849
325.15 K | 0.0853
325.35 K | 0.0855
325.55 K | 0.0856
325.65 K | 0.0858
325.85 K | 0.086
326.15 K | 0.0862
326.25 K | 0.0863
326.45 K | 0.0866
326.55 K | 0.0869
326.75 K | 0.087
326.95 K | 0.0871
327.05 K | 0.0873
327.55 K | 0.0876
327.75 K | 0.0876
333.45 K | 0.0912
333.65 K | 0.0914
333.75 K | 0.0915
334.05 K | 0.0916
334.35 K | 0.092
334.75 K | 0.0922
334.95 K | 0.0924
335.35 K | 0.0926
335.55 K | 0.0927
335.75 K | 0.0929
335.95 K | 0.093
336.15 K | 0.0932
336.55 K | 0.0934
336.65 K | 0.0935
336.85 K | 0.0936
337.05 K | 0.0937
337.25 K | 0.0939
337.55 K | 0.0942
337.75 K | 0.0943
338.05 K | 0.0945
338.15 K | 0.0947
338.55 K | 0.095
338.75 K | 0.0951
338.95 K | 0.0952
339.05 K | 0.0953
339.15 K | 0.0954
339.35 K | 0.0955
339.65 K | 0.0957
339.85 K | 0.0959
340.05 K | 0.096
340.35 K | 0.0962
340.55 K | 0.0963
340.65 K | 0.0964
340.85 K | 0.0966
341.05 K | 0.0967
341.15 K | 0.0968
341.35 K | 0.097
341.55 K | 0.0971
341.65 K | 0.0972
341.85 K | 0.0973
341.95 K | 0.0974
342.05 K | 0.0975
342.25 K | 0.0977
342.45 K | 0.0979
342.75 K | 0.098
342.95 K | 0.0982
343.05 K | 0.0983
343.25 K | 0.0987
343.45 K | 0.0989
343.75 K | 0.099
343.95 K | 0.0991
344.05 K | 0.0993
344.35 K | 0.0995
344.55 K | 0.0996
344.75 K | 0.1
345.05 K | 0.1
345.35 K | 0.1
345.55 K | 0.101
345.85 K | 0.101
346.05 K | 0.101
346.25 K | 0.101
346.55 K | 0.101
346.75 K | 0.102
346.85 K | 0.102
347.05 K | 0.102
347.25 K | 0.102
347.55 K | 0.102
347.75 K | 0.102
348.05 K | 0.103
348.15 K | 0.103
